The text below walks through data of patent US7335665B2, “Spirocyclic piperidines as MCH1 antagonists and uses thereof” (H - Lundbeck A/S, priority 2003, dated 2008).

Read-outs that look alike come from different tables or passages of the source.

The test system of assay [1] is G4F-7 cells. To be noted: cited from earlier work.
The target of assay [2] is T1, MCH-1 receptor (Rattus norvegicus, UniProt P97639).
T1 construct: host or cells: in vivo, endogenous receptor of the animal
The conditions noted are these: in vivo; cited from earlier work.

Assay [3] concerns MCH-1 receptor. The conditions noted are these: rat and human MCH-1; cited from earlier work.
For assay [4], the target named is T2, rat MCH1 receptor (Rattus norvegicus, UniProt P97639).
T2 construct: expressed in transfected cells; host or cells: Human embryonic kidney Peak rapid 293 cells (Peakr293), transient, calcium phosphate; membranes
T2 sequence (P97639 whole entry): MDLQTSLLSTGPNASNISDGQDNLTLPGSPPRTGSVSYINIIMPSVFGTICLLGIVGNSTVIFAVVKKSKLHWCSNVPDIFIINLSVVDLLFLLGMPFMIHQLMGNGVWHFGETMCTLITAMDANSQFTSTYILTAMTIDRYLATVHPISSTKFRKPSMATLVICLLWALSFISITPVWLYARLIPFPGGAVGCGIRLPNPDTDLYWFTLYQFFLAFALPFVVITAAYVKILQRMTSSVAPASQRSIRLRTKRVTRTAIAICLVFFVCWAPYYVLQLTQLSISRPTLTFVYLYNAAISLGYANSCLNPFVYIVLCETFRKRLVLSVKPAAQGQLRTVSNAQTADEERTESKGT
The experiment in a line: Radioligand binding assay at cloned rat MCH1 receptor ([3H]Compound A displacement). To be noted: cloned rat MCH1, membranes of transfected Peakr293 cells, 0.08 nM [3H]Compound A, 25° C., 90 minutes. In a few lines:
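Membranes from Peakr293 cells transiently transfected with rat MCH1 receptor were incubated with 0.08 nM [3H]Compound A in 50 mM Tris pH 7.4, 10 mM MgCl2, PMSF, 1,10-phenanthroline and 0.2% BSA, 90 min at 25° C. Bound ligand was collected by filtration; nonspecific binding was defined with […] Compound A.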

T1 sequence (P97639 whole entry): as above

For “native MCH: Melanin-concentrating hormone, cyclic peptide”, the inhibitory constant (Ki) in assay [1] (inhibition of radioiodinated [Phe13,Tyr19]-MCH binding) was 12 nM.
As for [Phe^13,Tyr^19]-MCH, the Kd in assay [1] (radioiodinated ligand, G4F-7 mouse melanoma cells) is 0.118 nM.
`CN(C)CC1CCc2cc(NC(=O)c3ccc(-c4ccc(F)cc4)cc3)ccc2C1` (centres unmarked) [Example T-226296]: in assay [2], the “food intake induced by the intracerebroventricular application of MCH” value was “inhibit food intake”. Also, the “affinity for the MCH-1 receptor” value in assay [3] was 5 to 9 nM.
With `O=C(NCCN1CCC2(CCc3ccccc32)CC1)c1cccc(Cl)c1` [Example 43, (3-CHLOROPHENYL)-N-(2-(SPIRO[INDANE-1,4′-PIPERIDINE]-10-YLETHYL)CARBOXAMIDE], in assay [4] (read-out: KI), the Ki was 507 nM.
On to `O=C1c2ccccc2C(=O)N1CCCCN1CCC2(C=Cc3ccccc32)CC1` [Example 1, 2-(4-(-(SPIRO[INDENE-1,4′-PIPERIDINE]-10-YL)BUTYL)BENZO[C]AZOLINE-1,3-DIONE], for which the affinity in assay [4] (KI) corresponds to a Ki of 807 nM.
Regarding `Cc1onc(-c2c(F)cccc2Cl)c1C(=O)NCCCCCCN1CCC2(CCc3ccccc32)CC1` [Example 12, [3-(2-CHLORO-6-FLUOROPHENYL)-5-METHYLISOXAZOL-4-YL]-N-(6-(SPIRO[INDANE-1,4′-PIPERIDINE]-10-YL)HEXYL)CARBOXAMIDE], in assay [4] (read-out: KI), the Ki was 661 nM.
Still for that read-out and setting: the result for `O=C(NCCCN1CCC2(CC1)OCc1ccccc12)C1(c2ccc(Cl)cc2)CCCC1` [Example 85, [(4-CHLOROPHENYL)CYCLOPENTYL]-N-(3-(SPIRO[1,3-DIHYDROISOBENZOFURAN-1,4′-PIPERIDINE]-10-YL)PROPYL)CARBOXAMIDE] reads 183 nM; that for `O=C(NCCCN1CCC2(CCc3ccccc32)CC1)C1(c2ccc(Cl)cc2)CCCC1` [Example 52, [1-(4-CHLOROPHENYL)CYCLOPENTYL]-N-(3-(SPIRO[INDANE-1,4′-PIPERIDINE]-10-YL)PROPYL)CARBOXAMIDE], 112 nM.
For `CC(C)(C)c1cc(C(=O)NCCCCCCN2CCC3(CCc4ccccc43)CC2)n(Cc2ccccc2)n1` [Example 20, [3-(TERT-BUTYL)-1-BENZYL)PYRAZOL-5-YL]-N-(6-(SPIRO[INDANE-1,4′-PIPERIDINE]-10-YL)HEXYL)CARBOXAMIDE], the Ki in assay [4] (KI) worked out at 510 nM.
Regarding `CC(C(=O)NCCCN1CCC2(CCc3ccccc32)CC1)c1ccc(Cl)cc1` (centres unmarked) [Example 50, 2-(4-CHLOROPHENYL)-N-(3-(SPIRO[INDANE-1,4′-PIPERIDINE]-10-YL)PROPYL)PROPANAMIDE], the inhibition constant (Ki) in assay [4] (read-out: KI) worked out at 194 nM.
The molecule `O=C(NCCCN1CCC2(CC1)OCc1ccccc12)C1(c2ccc(Cl)cc2)CCC1` [Example 87, [(4-CHLOROPHENYL)CYCLOBUTYL]-N-(3-(SPIRO[1,3-DIHYDROISOBENZOFURAN-1,4′-PIPERIDINE]-10-YL)PROPYL)CARBOXAMIDE] returned an inhibition constant (Ki) in assay [4] (KI) of 417 nM.
For `O=C(NCCCCCCN1CCC2(CCc3ccccc32)CC1)c1ccc(-c2ccccc2)cc1` [Example 29, (4-PHENYL)PHENYL)-N-(6-(SPIRO[INDANE-1,4′-PIPERIDINE]-10-YL)HEXYL)CARBOXAMIDE], the Ki in assay [4] (read-out: KI) came out at 431 nM.
For `CC(C(=O)NCCCN1CCC2(CC1)OCc1ccccc12)c1ccc(F)cc1` (centres unmarked) [Example 82, 2-(4-FLUOROPHENYL)-N-(3-(SPIRO[1,3-DIHYDROISOBENZOFURAN-1,4′-PIPERIDINE]-10-YL) PROPYL) PROPANAMIDE], in assay [4] (KI), the Ki was 679 nM.
